The values below come from PubChem BioAssay AID1259407 (Chemical Carcinogenesis Research Information System (CCRIS), 2018).

Activity calls are given as the source filed them. No rule for the calls is given here.

This data set concerns CCRIS mutagenicity, Ames/micronucleus/aberration tests. As to the kind of experiment: CCRIS mutagenicity studies.
[1] abbreviates: Test System: AMES SALMONELLA TYPHIMURIUM, Strain/Indicator: TA98, Metabolic Activation: NONE, Method: PREINCUBATION
The mark [2] stands for this setting: Test System: AMES SALMONELLA TYPHIMURIUM, Strain/Indicator: TA100, Metabolic Activation: NONE, Method: PREINCUBATION
Where [3] appears, read: Test System: AMES SALMONELLA TYPHIMURIUM, Strain/Indicator: TA1535, Metabolic Activation: NONE, Method: PREINCUBATION
Where [4] appears, read: Test System: AMES SALMONELLA TYPHIMURIUM, Strain/Indicator: TA1537, Metabolic Activation: NONE, Method: PREINCUBATION

Consider `CC[C@H]1O[C@@H]1c1ccccc1`, for which the mutagenic call by setting is: (Test System: AMES SALMONELLA TYPHIMURIUM, Strain/Indicator: TA98, Metabolic Activation: NONE, Method: PREINCUBATION (PHOSPHATE-BUFFERED KCL OR SOLUTE-FREE WATER MEDIA)) “inactive; negative”; (Test System: AMES SALMONELLA TYPHIMURIUM, Strain/Indicator: TA100, Metabolic Activation: NONE, Method: PREINCUBATION (PHOSPHATE-BUFFERED KCL OR SOLUTE-FREE WATER MEDIA)) “inactive; negative”; (Test System: AMES SALMONELLA TYPHIMURIUM, Strain/Indicator: TA104, Metabolic Activation: NONE, Method: PREINCUBATION (PHOSPHATE-BUFFERED KCL OR SOLUTE-FREE WATER MEDIA)) “inactive; negative”.
Take `O=C(O)c1c(Cl)c(Cl)c(Cl)c(Cl)c1-c1c2cc(I)c(=O)c(I)c-2oc2c(I)c(O)c(I)cc12`: the mutagenic call (End Point: IN VIVO MICRONUCLEUS, Test System: BONE MARROW POLYCHROMATIC ERYTHROCYTES, Species: MOUSE, Strain/Sex: DDY/MALE, Route: IP) is “inactive; negative”.
For `Nc1ccn(/C=C/C=O)c(=O)n1`, the mutagenic call (Test System: AMES SALMONELLA TYPHIMURIUM, Strain/Indicator: HISD3052, Metabolic Activation: NONE, Method: STANDARD PLATE) was “active; positive”.
`CCCCNCC`: the mutagenic call is “inactive; negative” (Test System: AMES SALMONELLA TYPHIMURIUM, Strain/Indicator: TA98, Metabolic Activation: HAMSTER, LIVER, S-9, AROCLOR 1254 (10%), Method: PREINCUBATION); “inactive; negative” under setting [1]; “inactive; negative” (Test System: AMES SALMONELLA TYPHIMURIUM, Strain/Indicator: TA98, Metabolic Activation: RAT, LIVER, S-9, AROCLOR 1254 (10%), Method: PREINCUBATION); “inactive; negative” (Test System: AMES SALMONELLA TYPHIMURIUM, Strain/Indicator: TA100, Metabolic Activation: HAMSTER, LIVER, S-9, AROCLOR 1254 (10%), Method: PREINCUBATION); “inactive; negative” under setting [2]; “inactive; negative” (Test System: AMES SALMONELLA TYPHIMURIUM, Strain/Indicator: TA100, Metabolic Activation: RAT, LIVER, S-9, AROCLOR 1254 (10%), Method: PREINCUBATION). Moreover, the mutagenic call reads like this: (Test System: AMES SALMONELLA TYPHIMURIUM, Strain/Indicator: TA1535, Metabolic Activation: HAMSTER, LIVER, S-9, AROCLOR 1254 (10%), Method: PREINCUBATION) “inactive; negative”; under setting [3], “inactive; negative”; (Test System: AMES SALMONELLA TYPHIMURIUM, Strain/Indicator: TA1535, Metabolic Activation: RAT, LIVER, S-9, AROCLOR 1254 (10%), Method: PREINCUBATION) “inactive; negative”; (Test System: AMES SALMONELLA TYPHIMURIUM, Strain/Indicator: TA1537, Metabolic Activation: HAMSTER, LIVER, S-9, AROCLOR 1254 (10%), Method: PREINCUBATION) “inactive; negative”; under setting [4], “inactive; negative”; (Test System: AMES SALMONELLA TYPHIMURIUM, Strain/Indicator: TA1537, Metabolic Activation: RAT, LIVER, S-9, AROCLOR 1254 (10%), Method: PREINCUBATION) “inactive; negative”.
As to `O=S1(=O)CCCC1`, the mutagenic call was “inactive; negative” under setting [1]; “inactive; negative” (Test System: AMES SALMONELLA TYPHIMURIUM, Strain/Indicator: TA98, Metabolic Activation: RAT, LIVER, S-9, KC 500, Method: PREINCUBATION); “inactive; negative” under setting [2]; “inactive; negative” (Test System: AMES SALMONELLA TYPHIMURIUM, Strain/Indicator: TA100, Metabolic Activation: RAT, LIVER, S-9, KC 500, Method: PREINCUBATION); “inactive; negative” under setting [3]; “inactive; negative” (Test System: AMES SALMONELLA TYPHIMURIUM, Strain/Indicator: TA1535, Metabolic Activation: RAT, LIVER, S-9, KC 500, Method: PREINCUBATION). Moreover, the mutagenic call was “inactive; negative” under setting [4]; “inactive; negative” (Test System: AMES SALMONELLA TYPHIMURIUM, Strain/Indicator: TA1537, Metabolic Activation: RAT, LIVER, S-9, KC 500, Method: PREINCUBATION); “inactive; negative” (Test System: AMES SALMONELLA TYPHIMURIUM, Strain/Indicator: TA1538, Metabolic Activation: NONE, Method: PREINCUBATION); “inactive; negative” (Test System: AMES SALMONELLA TYPHIMURIUM, Strain/Indicator: TA1538, Metabolic Activation: RAT, LIVER, S-9, KC 500, Method: PREINCUBATION); “inactive; negative” (Test System: E. COLI, Strain/Indicator: WP2 UVRA, Metabolic Activation: NONE, Method: PREINCUBATION); “inactive; negative” (Test System: E. COLI, Strain/Indicator: WP2 UVRA, Metabolic Activation: RAT, LIVER, S-9, KC 500, Method: PREINCUBATION).
Regarding `C(=C\c1ccccc1)/c1ccccc1`, the mutagenic call was “inactive; negative” (Test System: AMES SALMONELLA TYPHIMURIUM, Strain/Indicator: TA98, Metabolic Activation: HAMSTER, LIVER, S-9, AROCLOR 1254, Method: PREINCUBATION); “inactive; negative” under setting [1]; “inactive; negative” (Test System: AMES SALMONELLA TYPHIMURIUM, Strain/Indicator: TA98, Metabolic Activation: RAT, LIVER, S-9, AROCLOR 1254, Method: PREINCUBATION); “inactive; negative” (Test System: AMES SALMONELLA TYPHIMURIUM, Strain/Indicator: TA100, Metabolic Activation: HAMSTER, LIVER, S-9, AROCLOR 1254, Method: PREINCUBATION); “inactive; negative” under setting [2]; “inactive; negative” (Test System: AMES SALMONELLA TYPHIMURIUM, Strain/Indicator: TA100, Metabolic Activation: RAT, LIVER, S-9, AROCLOR 1254, Method: PREINCUBATION). The mutagenic call was “inactive; negative” (Test System: AMES SALMONELLA TYPHIMURIUM, Strain/Indicator: TA1535, Metabolic Activation: HAMSTER, LIVER, S-9, AROCLOR 1254, Method: PREINCUBATION); “inactive; negative” under setting [3]; “inactive; negative” (Test System: AMES SALMONELLA TYPHIMURIUM, Strain/Indicator: TA1535, Metabolic Activation: RAT, LIVER, S-9, AROCLOR 1254, Method: PREINCUBATION); “inactive; negative” (Test System: AMES SALMONELLA TYPHIMURIUM, Strain/Indicator: TA1537, Metabolic Activation: HAMSTER, LIVER, S-9, AROCLOR 1254, Method: PREINCUBATION); “inactive; negative” under setting [4]; “inactive; negative” (Test System: AMES SALMONELLA TYPHIMURIUM, Strain/Indicator: TA1537, Metabolic Activation: RAT, LIVER, S-9, AROCLOR 1254, Method: PREINCUBATION).
For the compound `ClCc1ccc2c3c(cccc13)-c1ccccc1-2`, the mutagenic call is, setting by setting: (Test System: AMES SALMONELLA TYPHIMURIUM, Strain/Indicator: TA98, Metabolic Activation: NONE, Method: STANDARD PLATE) “active; positive”; (Test System: AMES SALMONELLA TYPHIMURIUM, Strain/Indicator: TA100, Metabolic Activation: NONE, Method: STANDARD PLATE) “active; positive”.
Consider `O=S(=O)(O)OCc1ccc2ccc3cccc4ccc1c2c34`, for which, under setting [1], the mutagenic call is “active; positive”.
